The values below are quoted from earlier work in US20250205347A1, “METHODS FOR TREATING INFLAMMATORY CONDITIONS OF THE EYE WITH AN IGF-1R LIGAND CONJUGATED TO A DISEASE-MODIFYING AGENT” (Lirum Therapeutics, Inc., priority 2022, published 2025).

One data set has as its system IGFBPs. The conditions noted are these: known in the art (U.S. Pat. No. 4,876,242; Francis et al. 1992).
The target in a further data set is IGF-1R (Homo sapiens, UniProt P08069). The conditions noted are these: relative to IGF-1 / IGF-2; Hakuno et al. 2018.
IGF-1R, sequence (P08069 31-736 limits assumed, species assumed): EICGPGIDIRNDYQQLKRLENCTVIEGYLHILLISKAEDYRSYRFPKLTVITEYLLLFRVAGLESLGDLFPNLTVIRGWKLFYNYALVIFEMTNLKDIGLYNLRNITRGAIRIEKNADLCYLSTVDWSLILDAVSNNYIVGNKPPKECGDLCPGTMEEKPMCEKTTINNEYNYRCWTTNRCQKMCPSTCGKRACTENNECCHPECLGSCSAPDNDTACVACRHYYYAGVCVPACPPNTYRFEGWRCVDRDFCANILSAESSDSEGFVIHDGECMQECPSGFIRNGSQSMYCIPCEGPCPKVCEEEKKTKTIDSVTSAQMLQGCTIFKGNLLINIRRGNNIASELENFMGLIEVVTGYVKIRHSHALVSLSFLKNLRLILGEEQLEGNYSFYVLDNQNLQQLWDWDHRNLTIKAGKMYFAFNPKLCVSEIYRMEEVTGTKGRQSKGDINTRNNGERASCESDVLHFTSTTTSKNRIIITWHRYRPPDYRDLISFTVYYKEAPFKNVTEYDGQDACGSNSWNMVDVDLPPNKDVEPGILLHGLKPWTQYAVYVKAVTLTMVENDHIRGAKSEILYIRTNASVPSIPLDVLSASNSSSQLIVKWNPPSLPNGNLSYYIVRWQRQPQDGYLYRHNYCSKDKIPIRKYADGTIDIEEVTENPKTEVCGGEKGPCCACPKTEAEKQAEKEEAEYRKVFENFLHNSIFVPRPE
IGF-1R, sequence (P08069 741-1367 partner limits assumed, species assumed): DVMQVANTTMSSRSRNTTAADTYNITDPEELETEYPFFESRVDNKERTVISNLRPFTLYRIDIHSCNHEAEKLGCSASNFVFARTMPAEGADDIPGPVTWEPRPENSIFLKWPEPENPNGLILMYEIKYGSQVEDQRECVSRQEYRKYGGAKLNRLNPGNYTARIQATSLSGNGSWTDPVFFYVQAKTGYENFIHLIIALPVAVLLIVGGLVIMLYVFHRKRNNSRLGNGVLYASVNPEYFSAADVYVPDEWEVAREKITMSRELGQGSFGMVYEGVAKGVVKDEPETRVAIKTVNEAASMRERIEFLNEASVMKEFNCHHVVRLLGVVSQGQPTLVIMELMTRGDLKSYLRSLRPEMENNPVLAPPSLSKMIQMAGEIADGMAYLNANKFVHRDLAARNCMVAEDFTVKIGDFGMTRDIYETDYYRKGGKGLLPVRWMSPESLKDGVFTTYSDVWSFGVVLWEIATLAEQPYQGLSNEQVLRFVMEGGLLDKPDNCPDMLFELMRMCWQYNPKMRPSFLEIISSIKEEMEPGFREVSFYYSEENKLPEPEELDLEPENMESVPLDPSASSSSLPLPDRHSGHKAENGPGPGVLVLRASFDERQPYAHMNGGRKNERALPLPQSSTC

For the molecule “R3-IGF-1: IGF-1 variant (SEQ ID NO:6): glutamic acid in position 3 of human IGF-1 substituted by arginine”, the “binding affinity for IGFBPs as compared to wildtype IGF-1” value in the data set with IGFBPs is given as “reduced binding affinity for IGFBPs”.

As for “des(1-3) IGF-1: IGF-1 variant (SEQ ID NO:7) lacking the first three amino acids of human IGF-1”, in the data set with IGFBPs, the “binding affinity for IGFBPs as compared to wildtype IGF-1” value is given as “reduced binding affinity for IGFBPs”.

For “insulin: native IGF-1R ligand; mature human insulin, chain A SEQ ID NO:10 and chain B SEQ ID NO:11”, the “affinity of IGF-1R for the ligand, fold lower” value in the data set with IGF-1R was 50-to 100 fold.

B1: IGF132: IGF-1 variant (SEQ ID NO:4): first 17 amino acids of insulin B chain replace first 16 amino acids of human IGF-1 (protein)
chain: FVNQHLCGSHLVEALYLVCGDRGFYFNKPTGYGSSSRRAPQTGIVDECCFRSCDLRRLEMYCAPLKPAKSA
As to B1, the “binding affinity for IGFBPs as compared to wildtype IGF-1” value with IGFBPs is “reduced binding affinity for IGFBPs”.
